Measurements from patent US20240293384A1, “METHODS AND COMPOSITIONS FOR TREATMENT OF COVID-19” (priority 2021, published 2024).

What was measured:
tubulin network = assay: mRNA sequencing and IPA analysis of SARS-CoV-2-infected neurons; type: cell-based, human; conditions: neurons infected with virus for 24 hours, treated vs vehicle (DMSO)
SARS-CoV-2 [1] = type: cell-based, SARS-CoV-2 (Seattle strain)
Calu3 cells = assay: RNAseq of infected Calu3 cells, DEG reversal z-score analysis; type: cell-based, human; conditions: overlapping genes with FDR<10%
SARS-CoV-2 [2] = type: cell-based

| SMILES | expression of tubulins in mRNAseq (IPA Coronavirus Replication Pathway) (tubulin network) | SARS-CoV-2 levels determined by qPCR for Spike mRNA (SARS-CoV-2 [1]) | restoration of gene expression of infected cells to uninfected levels (log 2 fold change z-scores) (Calu3 cells) | viral RNA levels (qPCR, Spike RNA) (SARS-CoV-2 [2]) |
| --- | --- | --- | --- | --- |
| O=[N+]([O-])c1ccc(Sc2nnc(COc3ccccc3)n2-c2ccccc2)nc1 [MIND4-17, 5-Nitro-2-{[5-(phenoxymethyl)-4-phenyl-4H-1,2,4-triazol-3-yl]thio}pyridine] | downregulated | dramatic reduction in Spike transcripts | – | – |
| O=[N+]([O-])c1ccc(Sc2nnc(COc3ccccc3)n2-c2ccccc2)c2ncccc12 [MIND4] | – | – | significant restoration back to uninfected state | dramatic reduction in viral RNA levels |
